Literature values as cited in patent US7273870B2, “Stabilized difloxacin injectable solution” (Wyeth, priority 2002, dated 2007).

Solubility in water: not highly soluble in water
Compound: CN1CCN(c2cc3c(cc2F)c(=O)c(C(=O)O)cn3-c2ccc(F)cc2)CC1 [Difloxacin, 6-fluoro-1-(4-fluorophenyl)-1,4-dihydro-7-(4-methyl-1-piperadinyl) 4-oxo-3-quinolinecarboxylic acid]
